# Measured values: US20090143279A1 (priority 2007, published 2009)
# Where two headings read alike, the source gives them in different places.
# Columns and labels:
# [1] = tested on: mitochondrial membrane potential; assay type: cell-based, mouse; conditions: for ΔΨm (composite Z-score): normalized score vs mock-treated (DMSO) wells
# reactive oxygen species = assay type: cell-based, mouse; conditions: for ROS (composite Z-score): normalized score vs mock-treated (DMSO) wells
# OXPHOS gene expression = assay type: cell-based, mouse; conditions: for GE-HTS (composite Z-score): normalized score vs mock-treated (DMSO) wells
# nuOXPHOS transcripts = assay type: cell-based, mouse; conditions: for nucOX (composite Z-score): normalized score vs mock-treated (DMSO) wells
# mtOXPHOS transcripts = assay type: cell-based, mouse; conditions: for mitoOX (composite Z-score): normalized score vs mock-treated (DMSO) wells
# cytochrome c = assay type: cell-based, mouse; conditions: for cyt c (composite Z-score): normalized score vs mock-treated (DMSO) wells
# C2C12 myotubes = conditions: for Viability (composite Z-score): normalized score vs mock-treated (DMSO) wells
# [2] = tested on: cellular dehydrogenase activity; conditions: for MTT (composite Z-score): normalized score vs mock-treated (DMSO) wells
# [3] = 20 μM, composite Z-score vs DMSO
# [4] = composite Z-score vs DMSO wells, Conc 20 μM
# [5] = composite Z-score vs DMSO, Conc 20 μM
# [6] = 18.5 μM, composite Z-score vs DMSO
# [7] = composite Z-score vs mock-treated (DMSO) wells, concentration of each compound in μM
# [8] = composite Z-score vs mock-treated (DMSO) wells, Conc 20 μM
# [9] = normalized composite Z-score vs mock-treated (DMSO) wells, Conc 20 μM
# [10] = 13.14 μM, composite Z-score vs DMSO
# Chain of cytochrome c (P62897 whole entry): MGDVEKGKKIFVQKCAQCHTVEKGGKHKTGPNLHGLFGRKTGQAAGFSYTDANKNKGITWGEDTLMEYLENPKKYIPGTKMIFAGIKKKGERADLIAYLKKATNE
compound,measurement,setting,value
CN(C)c1nc(N(C)C)nc(N(C)C)n1 [altretamine],ΔΨm,[1],−0.440
same,ΔΨm,[1]; [3],−0.322
same,ROS,reactive oxygen species,0.462
same,ROS,reactive oxygen species; [3],0.103
same,GE-HTS,OXPHOS gene expression,0.884
same,GE-HTS,OXPHOS gene expression; [3],0.379
same,nucOX,nuOXPHOS transcripts,0.750
same,nucOX,nuOXPHOS transcripts; [3],0.488
same,mitoOX,mtOXPHOS transcripts,0.972
same,mitoOX,mtOXPHOS transcripts; [3],0.069
same,cyt c,cytochrome c,0.040
same,cyt c,cytochrome c; [3],−0.631
same,Viability,C2C12 myotubes,−0.533
same,Viability,C2C12 myotubes; [3],−0.315
same,MTT,[2],−0.442
same,MTT,[2]; [3],−1.416
Cc1noc(NS(=O)(=O)c2ccc(N)cc2)c1C [sulfisoxazole],ΔΨm,[1]; [4],−0.543
same,ROS,reactive oxygen species; [4],−0.095
same,GE-HTS,OXPHOS gene expression; [4],0.103
same,nucOX,nuOXPHOS transcripts; [4],0.239
same,mitoOX,mtOXPHOS transcripts; [4],−0.187
same,cyt c,cytochrome c,0.001
same,cyt c,cytochrome c; [4],0.649
same,Viability,C2C12 myotubes; [4],−1.895
same,MTT,[2]; [4],−0.835
"COC(=O)C1(C)CCCC2(C)c3ccc(C(C)C)cc3C(=O)CC12 (centres unmarked) [7-oxocallitrisic acid, methyl ester]",ΔΨm,[1]; [5],2.079
same,ROS,reactive oxygen species; [5],0.162
same,GE-HTS,OXPHOS gene expression; [5],−0.876
same,nucOX,nuOXPHOS transcripts; [5],−0.457
same,mitoOX,mtOXPHOS transcripts; [5],−1.555
same,cyt c,cytochrome c; [5],−0.923
same,Viability,C2C12 myotubes; [5],1.266
same,MTT,[2]; [5],0.111
C=CCc1ccc(O)c(OC)c1 [eugenol],ΔΨm,[1]; [3],−0.816
same,ROS,reactive oxygen species; [3],1.068
same,GE-HTS,OXPHOS gene expression; [3],−0.254
same,nucOX,nuOXPHOS transcripts; [3],−0.166
same,mitoOX,mtOXPHOS transcripts; [3],−0.320
same,cyt c,cytochrome c; [3],0.307
same,Viability,C2C12 myotubes; [3],−0.943
same,MTT,[2]; [3],−0.243
O=C(O)c1cc(O)c2c(c1)[C@H]([C@H]1c3cc(C(=O)O)cc(O)c3C(=O)c3c(O[C@@H]4O[C@H](CO)[C@@H](O)[C@H](O)[C@H]4O)cccc31)c1cccc(O[C@@H]3O[C@H](CO)[C@@H](O)[C@H](O)[C@H]3O)c1C2=O [sennoside A],ΔΨm,[1]; [5],−0.640
same,ROS,reactive oxygen species; [5],0.137
same,GE-HTS,OXPHOS gene expression; [5],−1.374
same,nucOX,nuOXPHOS transcripts; [5],−1.093
same,mitoOX,mtOXPHOS transcripts; [5],−1.628
same,cyt c,cytochrome c; [5],0.362
same,Viability,C2C12 myotubes; [5],0.602
same,MTT,[2]; [5],−0.769
COc1c2occc2cc2ccc(=O)oc12 [methoxy-8-psoralen],ΔΨm,[1]; [6],0.605
same,ROS,reactive oxygen species; [6],0.103
same,GE-HTS,OXPHOS gene expression; [6],0.803
same,nucOX,nuOXPHOS transcripts; [6],0.952
same,mitoOX,mtOXPHOS transcripts; [6],0.340
same,cyt c,cytochrome c; [6],0.227
same,Viability,C2C12 myotubes; [6],1.463
same,MTT,[2]; [6],−0.371
C[C@H](N)[C@H](O)c1cccc(O)c1 [metaraminol],ΔΨm,[1]; [5],−0.772
same,ROS,reactive oxygen species; [5],0.313
same,GE-HTS,OXPHOS gene expression; [5],−0.589
same,nucOX,nuOXPHOS transcripts; [5],−0.456
same,mitoOX,mtOXPHOS transcripts; [5],−0.745
same,cyt c,cytochrome c; [5],0.327
same,Viability,C2C12 myotubes; [5],0.107
same,MTT,[2]; [5],−1.268
colistin,ΔΨm,[1]; [7],−0.746
same,ROS,reactive oxygen species; [7],0.501
same,GE-HTS,OXPHOS gene expression; [7],−0.341
same,nucOX,nuOXPHOS transcripts; [7],−0.016
same,mitoOX,mtOXPHOS transcripts; [7],−0.939
same,cyt c,cytochrome c; [7],0.409
same,Viability,C2C12 myotubes; [7],0.940
same,MTT,[2]; [7],−1.283
COc1cc2c(cc1OC)[C@@]13CCN4CC5=CCO[C@H]6CC(=O)N2[C@H]1[C@H]6[C@H]5C[C@H]43 [brucine],ΔΨm (composite Z-score),[1]; Conc 20 μM,0.552
same,ROS (composite Z-score),reactive oxygen species; Conc 20 μM,0.930
same,GE-HTS (composite Z-score),OXPHOS gene expression; Conc 20 μM,−1.106
same,nucOX (composite Z-score),nuOXPHOS transcripts; Conc 20 μM,−1.084
same,mitoOX (composite Z-score),mtOXPHOS transcripts; Conc 20 μM,−0.887
same,cyt c (composite Z-score),cytochrome c; Conc 20 μM,0.660
same,Viability (composite Z-score),C2C12 myotubes; Conc 20 μM,1.605
same,MTT (composite Z-score),[2]; Conc 20 μM,−1.270
"C=C1[C@@H]2CC[C@@]3(C)[C@H](c4ccoc4)OC(=O)C[C@]13O[C@H]1CC(=O)C(C)(C)[C@H](CC(=O)OC)[C@]12C [angolensic acid, methyl ester]",ΔΨm,[1]; [8],0.163
same,ROS,reactive oxygen species; [8],0.465
same,GE-HTS,OXPHOS gene expression; [8],0.827
same,nucOX,nuOXPHOS transcripts; [8],0.729
same,mitoOX,mtOXPHOS transcripts; [8],0.813
same,cyt c,cytochrome c; [8],−0.204
same,Viability,C2C12 myotubes; [8],1.019
same,MTT,[2]; [8],0.322
CC(=O)OC1CCC23CC1(C)CCC2C(C)(C)CC3OC(C)=O (centres unmarked) [clovanediol diacetate],ΔΨm,[1]; [9],−0.599
same,ROS,reactive oxygen species; [9],−0.318
same,GE-HTS,OXPHOS gene expression; [9],−0.020
same,nucOX,nuOXPHOS transcripts; [9],0.007
same,mitoOX,mtOXPHOS transcripts; [9],−0.026
same,cyt c,cytochrome c; [9],0.384
same,Viability,C2C12 myotubes; [9],−0.119
same,MTT,[2]; [9],−0.708
CC1(C)C=Cc2cc3ccc(=O)oc3cc2O1 [xanthyletin],ΔΨm,[1]; [8],−0.220
same,ROS,reactive oxygen species; [8],0.217
same,GE-HTS,OXPHOS gene expression; [8],1.029
same,nucOX,nuOXPHOS transcripts; [8],0.924
same,mitoOX,mtOXPHOS transcripts; [8],1.085
same,cyt c,cytochrome c; [8],−0.029
same,Viability,C2C12 myotubes; [8],−0.674
same,MTT,[2]; [8],−1.741
"N[C@@H](CCC(=O)N[C@@H](CSC(CC(=O)O)C(=O)O)C(=O)NCC(=O)O)C(=O)O (stereo partly drawn) [S-(1,2-dicarboxyethyl)glutathione]",ΔΨm,[1]; [5],0.038
same,ROS,reactive oxygen species; [5],0.258
same,GE-HTS,OXPHOS gene expression; [5],−0.364
same,nucOX,nuOXPHOS transcripts; [5],−0.400
same,mitoOX,mtOXPHOS transcripts; [5],−0.219
same,cyt c,cytochrome c; [5],−0.411
same,Viability,C2C12 myotubes; [5],−0.049
same,MTT,[2]; [5],−0.635
N=c1ccn2c(n1)O[C@H]1[C@H](O)[C@@H](CO)O[C@H]12 [ancitabine],ΔΨm (composite Z-score),[1]; Conc 20 μM,−0.986
same,ROS (composite Z-score),reactive oxygen species; Conc 20 μM,−0.189
same,GE-HTS (composite Z-score),OXPHOS gene expression; Conc 20 μM,−1.115
same,nucOX (composite Z-score),nuOXPHOS transcripts; Conc 20 μM,−1.182
same,mitoOX (composite Z-score),mtOXPHOS transcripts; Conc 20 μM,−0.726
same,cyt c (composite Z-score),cytochrome c; Conc 20 μM,−0.158
same,Viability (composite Z-score),C2C12 myotubes; Conc 20 μM,−0.655
same,MTT (composite Z-score),[2]; Conc 20 μM,−2.731
C[C@@H]1O[C@@H](O[C@H]2[C@H](O[C@H]3CC[C@@]4(C)[C@@H](CC[C@]5(C)[C@@H]4CC=C4[C@@H]6CC(C)(C)CC[C@]6(C(=O)O[C@@H]6O[C@H](CO[C@@H]7O[C@H](CO)[C@@H](O[C@@H]8O[C@@H](C)[C@H](O)[C@@H](O)[C@H]8O)[C@H](O)[C@H]7O)[C@@H](O)[C@H](O)[C@H]6O)CC[C@]45C)[C@]3(C)CO)OC[C@H](O)[C@@H]2O)[C@H](O)[C@H](O)[C@H]1O [hederacoside C],ΔΨm (composite Z-score),[1]; Conc 20 μM,−0.559
same,ROS (composite Z-score),reactive oxygen species; Conc 20 μM,0.079
same,GE-HTS (composite Z-score),OXPHOS gene expression; Conc 20 μM,−0.809
same,nucOX (composite Z-score),nuOXPHOS transcripts; Conc 20 μM,−0.645
same,mitoOX (composite Z-score),mtOXPHOS transcripts; Conc 20 μM,−0.952
same,cyt c (composite Z-score),cytochrome c; Conc 20 μM,0.471
same,Viability (composite Z-score),C2C12 myotubes; Conc 20 μM,−0.672
same,MTT (composite Z-score),[2]; Conc 20 μM,−1.226
O=C(O)CCCc1ccc(N(CCCl)CCCl)cc1 [chlorambucil],ΔΨm,[1]; [10],0.199
same,ΔΨm,[1]; [3],−0.826
same,ROS,reactive oxygen species; [10],0.056
same,ROS,reactive oxygen species; [3],0.165
same,GE-HTS,OXPHOS gene expression; [10],0.249
same,GE-HTS,OXPHOS gene expression; [3],0.725
same,nucOX,nuOXPHOS transcripts; [10],0.147
same,nucOX,nuOXPHOS transcripts; [3],0.360
same,mitoOX,mtOXPHOS transcripts; [10],0.398
same,mitoOX,mtOXPHOS transcripts; [3],1.273
same,cyt c,cytochrome c; [10],0.035
same,cyt c,cytochrome c; [3],−0.955
same,Viability,C2C12 myotubes; [10],−0.507
same,Viability,C2C12 myotubes; [3],−0.007
same,MTT,[2]; [10],−0.069
same,MTT,[2]; [3],−1.519
"CCCCCC1C(=O)CCC1CC(=O)OC (centres unmarked) [dihydrojasmonic acid, methyl ester]",ΔΨm,[1]; [5],−0.204
same,ROS,reactive oxygen species; [5],−0.386
same,GE-HTS,OXPHOS gene expression; [5],0.948
same,nucOX,nuOXPHOS transcripts; [5],0.831
same,mitoOX,mtOXPHOS transcripts; [5],1.068
same,cyt c,cytochrome c; [5],−0.281
same,Viability,C2C12 myotubes; [5],0.971
same,MTT,[2]; [5],−0.452
COc1ccc(-c2cc(=O)c3c(O)cc(O[C@@H]4O[C@H](CO[C@@H]5O[C@@H](C)[C@H](O)[C@@H](O)[C@H]5O)[C@@H](O)[C@H](O)[C@H]4O)cc3o2)cc1O [diosmin],ΔΨm,[1]; [4],−0.501
same,ROS,reactive oxygen species; [4],0.321
same,GE-HTS,OXPHOS gene expression; [4],−1.223
same,nucOX,nuOXPHOS transcripts; [4],−1.150
same,mitoOX,mtOXPHOS transcripts; [4],−1.147
same,cyt c,cytochrome c; [4],−0.433
same,Viability,C2C12 myotubes; [4],−0.712
same,MTT,[2]; [4],−0.708
